This passage reports CC50 and LC50 results from ChEMBL document CHEMBL1149390, “Potent CYP19 (aromatase) 1-[(benzofuran-2-yl)(phenylmethyl)pyridine, -imidazole, and -triazole inhibitors: synthesis and biological evaluation” (J Med Chem, 2006).

Assay [1] deals with Hepatocyte. As to the kind of experiment: cells. The conditions noted are these: Rattus norvegicus, 24 h, read-out: LC50 (the source's name). Type of assay: functional.
The subject of assay [2] is Hepatocyte. The conditions noted are these: Rattus norvegicus.

SMILES strings stand for the structures. The source made the active and inactive calls. The rule behind the calls is not given here. Bounds are passed on as bounds.

For `CC(C)(C#N)c1cc(Cn2cncn2)cc(C(C)(C)C#N)c1` [ANASTROZOLE], the CC50 in assay [1] was above 200 µM.

Regarding `COc1ccc(C(c2cc3ccc(OC)cc3o2)n2cncn2)cc1` (stereo not drawn), in assay [1], the CC50 is 90 µM. For the same compound, the LC50 entry in assay [2] was “inactive”.

For `COc1ccc2cc(C(c3ccc(Cl)cc3)n3cncn3)oc2c1` (stereo not drawn), the CC50 in assay [1] worked out at 50 µM. The LC50 result in assay [2] is “inactive”.

On to `COc1ccc2cc(C(c3ccc(F)cc3)n3cncn3)oc2c1` (stereo not drawn), for which the CC50 in assay [1] was 100 µM. The LC50 entry in assay [2] is “inactive”.

For the compound `COc1ccc2cc(C(O)(c3ccc(F)cc3)c3cccnc3)oc2c1` (stereo not drawn), the CC50 in assay [1] was above 100 µM. Also, in assay [2], the LC50 entry was “inactive”.

As for `COc1ccc(C(O)(c2cccnc2)c2cc3ccc(OC)cc3o2)cc1` (stereo not drawn), the CC50 in assay [1] amounted to 100 µM. The LC50 entry in assay [2] was “inactive”.

For `COc1ccc(C(c2cc3ccc(OC)cc3o2)n2ccnc2)cc1` (stereo not drawn), the CC50 in assay [1] came out at 50 µM. Besides, the LC50 result in assay [2] was “inactive”.
